Data as given in ChEMBL document CHEMBL3785087, “Synthesis and biological activities of indolizine derivatives as alpha-7 nAChR agonists” (Eur J Med Chem, 2016).

How the values were obtained:
Assay type in all cases: cell-based
[1] = target: T1, Neuronal acetylcholine receptor subunit alpha-7 (Homo sapiens, UniProt P36544); experiment: Agonist activity at human alpha7 nAChR expressed in xenopus oocytes preincubated for 10 mins followed by acetylcholine addition by patch clamp electrophysiological assay
[2] = target: T1, Neuronal acetylcholine receptor subunit alpha-7; experiment: […] to human alpha7 nAChR expressed in xenopus oocytes preincubated for 10 mins followed by acetylcholine addition by patch clamp electrophysiological assay relative to acetylcholine; set-up: concentration or dose not given beside the values
[3] = target: T1, Neuronal acetylcholine receptor subunit alpha-7; experiment: Displacement of [3H]-MLA from human alpha7 nAChR expressed in xenopus oocytes
[4] = target: T1, Neuronal acetylcholine receptor subunit alpha-7; experiment: Displacement of [3H]-MLA from human alpha7 nAChR expressed in xenopus oocytes in presence of alpha7 nAChR positive allosteric modulator PNU-120596

T1 sequence (P36544 whole entry): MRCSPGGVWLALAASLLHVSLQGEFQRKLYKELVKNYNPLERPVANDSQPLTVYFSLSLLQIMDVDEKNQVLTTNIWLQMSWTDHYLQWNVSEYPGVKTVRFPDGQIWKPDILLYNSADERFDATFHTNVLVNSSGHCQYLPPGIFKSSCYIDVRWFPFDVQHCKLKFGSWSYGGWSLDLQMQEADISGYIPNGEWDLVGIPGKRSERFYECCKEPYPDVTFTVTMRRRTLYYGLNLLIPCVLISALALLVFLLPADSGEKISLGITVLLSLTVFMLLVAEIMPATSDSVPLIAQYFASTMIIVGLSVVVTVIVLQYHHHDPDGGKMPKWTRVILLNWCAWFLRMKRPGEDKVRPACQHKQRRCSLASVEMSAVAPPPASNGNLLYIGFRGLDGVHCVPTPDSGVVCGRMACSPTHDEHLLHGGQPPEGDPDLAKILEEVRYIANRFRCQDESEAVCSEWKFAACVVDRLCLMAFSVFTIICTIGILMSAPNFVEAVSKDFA

Row | SMILES | EC50 [1] [µM] | Activity [2] [%] | Ki [3] [µM] | Ki [4] [µM]
1 | O=C(N[C@H]1CN2CCC1CC2)c1cc(C(=O)c2ccccc2F)n2ccccc12 | > 20 | < 1 | – | –
2 | Cc1cccc(-c2ccc3cc(C(=O)N[C@H]4CN5CCC4CC5)cn3c2)c1 | > 20 | < 1 | – | –
3 | Cc1nc2c(Br)cccn2c1C(=O)N[C@H]1CN2CCC1CC2 | > 20 | < 1 | – | –
4 | O=C(N[C@H]1CN2CCC1CC2)c1cc2cccc(-c3ccsc3)n2c1 | 3.54 | 40.8 | – | –
5 | O=C(N[C@H]1CN2CCC1CC2)c1cc2ccc(Br)cn2c1 | 9.63 | 86.3 | – | –
6 | O=C(N[C@H]1CN2CCC1CC2)c1cc2ccc(-c3ccccc3)cn2c1 | > 20 | < 1 | – | –
7 | O=C(N[C@H]1CN2CCC1CC2)c1cc2cccc(Cl)n2c1 | 2.49 | 63.2 | – | –
8 | CCOC(=O)c1cc(C(=O)c2ccccc2)n2ccc(C(=O)N[C@H]3CN4CCC3CC4)cc12 | > 20 | < 1 | – | –
9 | CCOC(=O)c1cc(C(=O)c2cccc([N+](=O)[O-])c2)n2ccc(C(=O)N[C@H]3CN4CCC3CC4)cc12 | > 20 | < 1 | – | –
10 | CCOC(=O)c1cc(C(=O)c2ccccc2O)n2ccc(C(=O)N[C@H]3CN4CCC3CC4)cc12 | > 20 | < 1 | – | –
11 | O=C(N[C@H]1CN2CCC1CC2)c1cc2ccc(-c3ccsc3)cn2c1 | > 20 | < 1 | – | –
12 | O=C(N[C@H]1CN2CCC1CC2)c1cc2c(Br)cccn2c1 | 4.75 | 75.9 | – | –
13 | Cc1cccc2cc(C(=O)N[C@H]3CN4CCC3CC4)cn12 | 2.14 | 66 | – | –
14 | O=C(N[C@H]1CN2CCC1CC2)c1cc(C(=O)c2ccc(-c3ccccc3)cc2)n2ccccc12 | > 20 | < 1 | – | –
15 | O=C(N[C@H]1CN2CCC1CC2)c1cc2c(-c3ccccc3)cccn2c1 | > 20 | < 1 | – | –
16 | O=C(N[C@H]1CN2CCC1CC2)c1cc2c(Cl)cccn2c1 | > 20 | < 1 | – | –
17 | CCOC(=O)c1cc(C(=O)c2cccc(Cl)c2)n2ccc(C(=O)N[C@H]3CN4CCC3CC4)cc12 | > 20 | < 1 | – | –
18 | O=C(N[C@H]1CN2CCC1CC2)c1cc2ccccn2c1 | 8.38 | 57.1 | – | –
19 | O=C(N[C@H]1CN2CCC1CC2)c1cc(C(=O)c2ccccc2)n2ccccc12 | > 20 | < 1 | – | –
20 | O=C(N[C@H]1CN2CCC1CC2)c1cc(C(=O)c2cccc(Br)c2)n2ccccc12 | > 20 | < 1 | – | –
21 | CCOC(=O)c1cc(C(=O)c2ccc(F)cc2)n2ccc(C(=O)N[C@H]3CN4CCC3CC4)cc12 | > 20 | < 1 | – | –
22 | CCOC(=O)c1cc(C(=O)c2ccccc2)n2cc(C(=O)N[C@H]3CN4CCC3CC4)ccc12 | > 20 | < 1 | – | –
23 | O=C(N[C@H]1CN2CCC1CC2)c1cc2cc(Cl)ccn2c1 | 6.92 | 19.6 | – | –
24 | O=C(N[C@H]1CN2CCC1CC2)c1cnc2ccccn12 | > 20 | < 1 | – | –

Row | SMILES | EC50 [1] [µM] | Activity [2] [%] | Ki [3] [µM] | Ki [4] [µM]
25 | CCOC(=O)c1cc(C(=O)c2cccc(C(F)(F)F)c2)n2ccc(C(=O)N[C@H]3CN4CCC3CC4)cc12 | > 20 | < 1 | – | –
26 | CCOC(=O)c1cc(C(=O)c2ccccc2)n2cccc(C(=O)N[C@H]3CN4CCC3CC4)c12 | > 20 | < 1 | – | –
27 | O=C(N[C@H]1CN2CCC1CC2)c1cc2ccc(Cl)cn2c1 | > 20 | < 1 | – | –
28 | O=C(N[C@H]1CN2CCC1CC2)c1cc(C(=O)c2ccc(Cl)cc2)n2ccccc12 | > 20 | < 1 | – | –
29 | Cc1ccccc1-c1cccc2cc(C(=O)N[C@H]3CN4CCC3CC4)cn12 | 4.64 | 17.6 | – | –
30 | O=C(N[C@H]1CN2CCC1CC2)c1cc2cccc(Br)n2c1 | – | 64.3 | 0.0149 | 0.0936
31 | CC(C)(C)c1ccc(-c2ccc3cc(C(=O)N[C@H]4CN5CCC4CC5)cn3c2)cc1 | > 20 | < 1 | – | –
32 | CC(C)(C)c1ccc(-c2cccc3cc(C(=O)N[C@H]4CN5CCC4CC5)cn23)cc1 | 8.6 | 23.9 | – | –
33 | O=C(N[C@H]1CN2CCC1CC2)c1cc2cccc(-c3ccccc3)n2c1 | 3.98 | 59.8 | – | –
34 | Cc1cccc(-c2cccc3cc(C(=O)N[C@H]4CN5CCC4CC5)cn23)c1 | 3.99 | 63.9 | – | –
35 | CCOC(=O)c1cc(C(=O)c2ccc(Cl)c(Cl)c2)n2ccc(C(=O)N[C@H]3CN4CCC3CC4)cc12 | > 20 | < 1 | – | –
36 | O=C(N[C@H]1CN2CCC1CC2)c1cc(C(=O)c2ccc3ccccc3c2)n2ccccc12 | > 20 | < 1 | – | –
37 | CCOC(=O)c1cc(C(=O)c2cccc(F)c2)n2ccc(C(=O)N[C@H]3CN4CCC3CC4)cc12 | > 20 | < 1 | – | –
38 | O=C(N[C@H]1CN2CCC1CC2)c1cc2cccc(-c3ccc(-c4ccccc4)cc3)n2c1 | 14.1 | 18 | – | –
39 | O=C(N[C@H]1CN2CCC1CC2)c1cc2cccc(Cl)c2s1 [ENCENICLINE] | 0.34 | 33.5 | – | –
40 | O=C(N[C@H]1CN2CCC1CC2)c1cc(C(=O)c2ccccc2Br)n2ccccc12 | > 20 | < 1 | – | –
41 | O=C(N[C@H]1CN2CCC1CC2)c1cc2cc(Br)ccn2c1 | 10.5 | 34.7 | – | –
42 | Cc1ccccc1-c1ccc2cc(C(=O)N[C@H]3CN4CCC3CC4)cn2c1 | > 20 | < 1 | – | –
43 | O=C(N[C@H]1CN2CCC1CC2)c1cc2c(F)cccn2c1 | 2.83 | 63.7 | – | –
44 | Cc1nc2ccc(F)cn2c1C(=O)N[C@H]1CN2CCC1CC2 | > 20 | < 1 | – | –
45 | CN(C)c1cccc(-c2cccc3cc(C(=O)N[C@H]4CN5CCC4CC5)cn23)c1 | > 20 | < 1 | – | –
46 | O=C(N[C@H]1CN2CCC1CC2)c1cc(C(=O)c2cccc(Cl)c2)n2ccccc12 | > 20 | < 1 | – | –
47 | O=C(N[C@H]1CN2CCC1CC2)c1cc2ccc(-c3cccs3)cn2c1 | > 20 | < 1 | – | –
48 | O=C(N[C@H]1CN2CCC1CC2)c1cc2cc(-c3ccccc3)ccn2c1 | > 20 | < 1 | – | –
